In general, IC50 refers to the point on the concentration scale where inhibition reaches its midpoint. Low readings indicate higher potency, high ones lower potency.

In PMC12579162, “Synthesized Depside Molecules Suppress the Progression of Colorectal Cancer by Binding VDAC1/PHB/MMP9 Being at the Crossroads of Stemness, Motility, Apoptosis, and Metabolism” (MedComm, 2025) one finds spheroid formation and IC50 data, which are given here for two molecules.

Type in all cases: cell-based
For one test, the system named is spheroid formation. Description: Spheroid formation, comparison with known MMP inhibitor (Figure S10). The conditions noted are these: 10 µM, 10–14 days. How it is done:
Monolayer cells were separated into single‐cell suspensions at around 70% confluence using a solution of trypsin. After that, the cells were added to N2‐supplemented DMEM/F12 that contained human basal fibroblast growth factor and human recombinant epidermal growth factor. Cells seeded at a density of 5 × 10^3 cells/well in ultra‐low attachment 24‐well plates (Corning Inc., Corning, NY, USA). After 10–14 days of culture, spheres were quantitated by inverted phase contrast microscopy. The relative sphere formation ability was calculated through the IMT iSolution software (IMT iSolution Inc., Northampton, NJ, USA) measuring the pixel intensity of the sphere area randomly in each plate.
Supplementary Figure S10. Comparison of the effects of novel VDAC1/PHB/MMP9 binding compounds and known MMP inhibitor on spheroid formation. Cells were exposed to the compound at 5 μM concentration of SB4 or SB5 and 10 μM of MMP inhibitor (GM 6001, ilomastat) for 10-14 days. The histogram represents spheroid formation, calculated as rate relative to vehicle-treated control, and represented as bar graphs. *p < 0.05; **p < 0.01; ***p < 0.001; NS, no significant difference between compared groups.

The next test relates to SW620 cells. Description: MTT cell viability, SW620. The note with it: Homo sapiens, SW-620; 48 h, MTT assay. The method, then:
(§1) Cells (3 × 10^3 cells/well) were seeded on a 96‐well plate, grown overnight, and then treated with compounds at indicated concentrations for 48 h. After incubation with MTT for 4 h at 37°C, cells were lysed with 150 µL of DMSO (Sigma–Aldrich, St. Louis, USA). Absorbance was measured at 570 nm on a microplate reader with the Gen5 software (v.2.03.1; BioTek, Winooski, VT, USA).
Background: Tetrazolium dyes change colour on reduction, which living cells bring about.

For a further test, the system named is HCT116 cells. Briefly: MTT cell viability, HCT116. The note with it: Homo sapiens, HCT-116; 48 h, MTT assay. The method, then:
as §1

For the next test, the system named is MCF10A cells. Briefly: MTT cell viability, MCF10A. The conditions noted are these: Homo sapiens, MCF-10A; 48 h, MTT assay. The method, then: as §1
Another test deals with CSC221 cells. Briefly: MTT cell viability, CSC221. The conditions noted are these: Homo sapiens; 48 h, MTT assay. The method, then:
as §1

For the next test, the system named is BEAS-2B cells. Briefly: MTT cell viability, BEAS-2B. The conditions noted are these: Homo sapiens, 48 h, MTT assay. The method, then:
as §1

In a further test the test system is CaCo2 cells. Briefly: MTT cell viability, CaCo2. The conditions noted are these: Homo sapiens, Caco-2; 48 h, MTT assay. How it is done: as §1
The test system of another test is DLD1 cells. Description: MTT cell viability, DLD1. The conditions noted are these: Homo sapiens, DLD-1; 48 h, MTT assay. How it is done: as §1
Another test concerns HaCaT cells. Description: MTT cell viability, HaCaT. The note with it: Homo sapiens, 48 h, MTT assay. The method, then: as §1
The test system of the next test is HEK293T cells. Briefly: MTT cell viability, HEK293T. The note with it: Homo sapiens, HEK-293T; 48 h, MTT assay. How it is done: as §1
Another test relates to CT26 cells. Description: MTT cell viability, CT26. The conditions noted are these: Mus musculus, 48 h, MTT assay. The method, then: as §1
Another test relates to HT29 cells. Briefly: MTT cell viability, HT29. The note with it: Homo sapiens, HT-29; 48 h, MTT assay. How it is done:
as §1

For the molecule `CNC(=O)[C@H](Cc1c[nH]c2ccccc12)NC(=O)[C@@H](CC(=O)NO)CC(C)C` [GM 6001, ilomastat], in the test with spheroid formation, the spheroid formation result is on record as “no effect on inhibition of spheroid formation”.
Regarding `COc1cc(C)c(C(=O)Oc2cc(C)c(C(=O)O)c(O)c2C)c(OC)c1C` [DA, diffractaic acid, reference compound], the half-inhibitory concentration (IC50) is 46.2 µM in the test with SW620 cells; 49.1 µM in the test with HCT116 cells; 146 µM in the test with MCF10A cells; 133 µM in the test with CSC221 cells; 54.3 µM in the test on BEAS-2B cells; 90.5 µM in the test on CaCo2 cells. The IC50 was 64.1 µM with DLD1 cells; 84.2 µM with HaCaT cells; 121 µM in the test on HEK293T cells; 46.2 µM in the test with CT26 cells; 62.8 µM with HT29 cells.
